{"source": "patent US20180272034A1", "about": "“USE OF CSA COMPOUNDS TO PREVENT MICROBIAL BUILD-UP OR FOULING OF MEDICAL IMPLANTS” (BRIGHAM YOUNG UNIVERSITY, priority 2017, published 2018)", "key": {"Candida auris isolates": {"tested_on": "Candida auris isolates", "experiment": "Antifungal MIC, CLSI M27-A3", "type": "cell-based", "method": "The antifungal effectiveness of CSA-131 was tested against 100 Candida auris isolates. The C. auris isolates were from all over the world and covered known C. auris clades. The selection included isolated known to have elevated MIC values against fluconazole, the echinocandins, and/or amphotericin B.\nTesting was performed according to the standards of the Clinical and Laboratory Standards Institute reference methodology M27-A3 (as of 2017). CSA-131 was dissolved in DMSO and diluted as described in M27-A3 to give a final DMSO concentration of <1%. Dilution plates were stored at −70° C. until used and were used within one week of being produced. All results were read visually after 24 hours of incubation at the lowest drug concentration at which there was a 50% decrease in growth by visual inspection. Quality control isolates C. parapsilosis ATCC 22019 and C. krusei ATCC 6258 were included on each day of testing although there are no standard QC values for these isolates against this compound. The MIC values for ATCC 22019 and ATCC 6258 remained within a tight range of 1-2 dilutions over the course of the study."}, "[1]": {"experiment": "Duration of efficacy of silicone-based Foley catheter with CSA-131", "conditions": "hydrogel coating approximately 10 μm including CSA-131", "description": "A silicone-based Foley catheter was coated with a hydrogel coating of approximately 10 μm in thickness. The coating included CSA-131. The coating was initially shown to maintain efficacy for about 6-7 days. A silicone-based Foley catheter was formed using silicone mixed with an NDSA salt form of CSA-131."}, "[2]": {"conditions": "100 C. auris isolates, 50% decrease in growth, 24 hours"}, "[3]": {"conditions": "fluconazole Resistant isolates, 69"}, "[4]": {"conditions": "fluconazole Susceptible isolates, 30"}, "[5]": {"conditions": "isolates with elevated echinocandin MICs, 7"}}, "data": [{"smiles": "CCCCCCCCCCCCNCCC[C@@H](C)[C@H]1CC[C@H]2[C@@H]3[C@H](OCCCN)C[C@@H]4C[C@H](OCCCN)CC[C@]4(C)[C@H]3C[C@H](OCCCN)[C@]12C.Cl.Cl.Cl.Cl", "note": "[CSA-131]", "values": [{"measurement": "No. of Isolates at MIC 0.016", "setting": "Candida auris isolates; 100 C. auris isolates", "value": 0}, {"measurement": "No. of Isolates at MIC 0.03", "setting": "Candida auris isolates; 100 C. auris isolates", "value": 0}, {"measurement": "No. of Isolates at MIC 0.0625", "setting": "Candida auris isolates; 100 C. auris isolates", "value": 0}, {"measurement": "No. of Isolates at MIC 0.125", "setting": "Candida auris isolates; 100 C. auris isolates", "value": 0}, {"measurement": "No. of Isolates at MIC 0.25", "setting": "Candida auris isolates; 100 C. auris isolates", "value": 0}, {"measurement": "No. of Isolates at MIC 0.5", "setting": "Candida auris isolates; 100 C. auris isolates", "value": 39}, {"measurement": "No. of Isolates at MIC 1", "setting": "Candida auris isolates; 100 C. auris isolates", "value": 61}, {"measurement": "No. of Isolates at MIC 2", "setting": "Candida auris isolates; 100 C. auris isolates", "value": 0}, {"measurement": "No. of Isolates at MIC <0.016", "setting": "Candida auris isolates; 100 C. auris isolates", "value": 0}, {"measurement": "No. of Isolates at MIC >2", "setting": "Candida auris isolates; 100 C. auris isolates", "value": 0}, {"measurement": "MIC50", "setting": "Candida auris isolates; [2]", "value": 1, "unit": "µg/mL"}, {"measurement": "MIC90", "setting": "Candida auris isolates; [2]", "value": 1, "unit": "µg/mL"}, {"measurement": "MIC Mode", "setting": "Candida auris isolates; [2]", "value": 1, "unit": "µg/mL"}, {"measurement": "MIC Range", "setting": "Candida auris isolates; 100 C. auris isolates, 50% decrease in growth, 24 hours, in µg/mL", "value": "0.5-1"}, {"measurement": "activity against C. auris collection", "setting": "Candida auris isolates; 100 isolates, 4 clades", "value": "showed activity against all C. auris"}, {"measurement": "MIC50", "setting": "Candida auris isolates; Clade 1, 47 isolates", "value": 1, "unit": "µg/mL"}, {"measurement": "MIC90", "setting": "Candida auris isolates; Clade 1, 47 isolates", "value": 1, "unit": "µg/mL"}, {"measurement": "MIC Mode", "setting": "Candida auris isolates; Clade 1, 47 isolates", "value": 1, "unit": "µg/mL"}, {"measurement": "MIC Range", "setting": "Candida auris isolates; Clade 1, 47 isolates", "value": "0.5 to 1", "unit": "µg/mL"}, {"measurement": "MIC50", "setting": "Candida auris isolates; Clade 2, 11 isolates", "value": 1, "unit": "µg/mL"}, {"measurement": "MIC90", "setting": "Candida auris isolates; Clade 2, 11 isolates", "value": 1, "unit": "µg/mL"}, {"measurement": "MIC Mode", "setting": "Candida auris isolates; Clade 2, 11 isolates", "value": 1, "unit": "µg/mL"}, {"measurement": "MIC Range", "setting": "Candida auris isolates; Clade 2, 11 isolates", "value": "0.5 to 1", "unit": "µg/mL"}, {"measurement": "MIC50", "setting": "Candida auris isolates; Clade 3, 39 isolates", "value": 1, "unit": "µg/mL"}, {"measurement": "MIC90", "setting": "Candida auris isolates; Clade 3, 39 isolates", "value": 1, "unit": "µg/mL"}, {"measurement": "MIC Mode", "setting": "Candida auris isolates; Clade 3, 39 isolates", "value": 1, "unit": "µg/mL"}, {"measurement": "MIC Range", "setting": "Candida auris isolates; Clade 3, 39 isolates", "value": "0.5 to 1", "unit": "µg/mL"}, {"measurement": "MIC50", "setting": "Candida auris isolates; Clade 4, 3 isolates", "value": 0.5, "unit": "µg/mL"}, {"measurement": "MIC90", "setting": "Candida auris isolates; Clade 4, 3 isolates", "value": 1, "unit": "µg/mL"}, {"measurement": "MIC Mode", "setting": "Candida auris isolates; Clade 4, 3 isolates", "value": 0.5, "unit": "µg/mL"}, {"measurement": "MIC Range", "setting": "Candida auris isolates; Clade 4, 3 isolates", "value": "0.5 to 1", "unit": "µg/mL"}, {"measurement": "MIC50", "setting": "Candida auris isolates; [3]", "value": 1, "unit": "µg/mL"}, {"measurement": "MIC90", "setting": "Candida auris isolates; [3]", "value": 1, "unit": "µg/mL"}, {"measurement": "MIC Mode", "setting": "Candida auris isolates; [3]", "value": 1, "unit": "µg/mL"}, {"measurement": "MIC Range", "setting": "Candida auris isolates; [3]", "value": "0.5 to 1", "unit": "µg/mL"}, {"measurement": "MIC50", "setting": "Candida auris isolates; [4]", "value": 0.5, "unit": "µg/mL"}, {"measurement": "MIC90", "setting": "Candida auris isolates; [4]", "value": 1, "unit": "µg/mL"}, {"measurement": "MIC Range", "setting": "Candida auris isolates; [4]", "value": "0.5 to 1", "unit": "µg/mL"}, {"measurement": "MIC50", "setting": "Candida auris isolates; [5]", "value": 1, "unit": "µg/mL"}, {"measurement": "MIC90", "setting": "Candida auris isolates; [5]", "value": 1, "unit": "µg/mL"}, {"measurement": "MIC Mode", "setting": "Candida auris isolates; [5]", "value": 1, "unit": "µg/mL"}, {"measurement": "MIC Range", "setting": "Candida auris isolates; isolates with elevated echinocandin MICs, 7, in µg/mL", "value": "0.5-1"}, {"measurement": "time coating maintains efficacy", "setting": "[1]", "value": "6 to 7", "unit": "days"}]}]}
